Source: publication PMC10541198, “Specific quinone reductase 2 inhibitors reduce metabolic burden and reverse Alzheimer’s disease phenotype in mice” (The Journal of Clinical Investigation, 2023)
“And” between values parts separate entries of the source, which are not always exact repeats. Equal values may be shown once. One block for each molecule: values may come before it.

Legend:
QR2 = target: T1, QR2 (Homo sapiens, UniProt P16083); test: QR2 activity assay, BNAH fluorescence (standard/primary); assay type: biochemical; conditions: for IC50: Figure 2D, readout not stated
T1 construct: purchased Sigma-Aldrich
T1 sequence (P16083 1-231): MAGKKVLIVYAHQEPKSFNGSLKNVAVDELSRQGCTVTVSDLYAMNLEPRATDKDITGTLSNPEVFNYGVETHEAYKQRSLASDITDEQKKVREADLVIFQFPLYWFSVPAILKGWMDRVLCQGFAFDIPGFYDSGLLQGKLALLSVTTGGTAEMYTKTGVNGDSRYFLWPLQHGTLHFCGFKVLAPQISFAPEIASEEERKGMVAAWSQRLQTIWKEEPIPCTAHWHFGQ
From the text: A drug discovery campaign strategy was initiated to screen compounds for QR2-specific, cell-free inhibition and in vitro activity, followed by SAR optimization (Figure 2A) to achieve highly specific and potent QR2 inhibitor synthesis. In order to establish a varied and chemically amenable starting point, we developed a high-throughput QR2 assay (Supplemental Methods) that we screened against a library with approximately 200,000 compounds. […] Compounds that replicated the initial hit result were then assayed similarly against QR1 to evaluate compound specificity (Figure 2B). From the HTS, a chemically tractable and attractive series of compounds containing a sulfone flanked by an amine and a heterocycle were identified and selected for SAR development (Figure 2C, Supplemental Methods, Supplemental Table 1, and Supplemental Table 2). […]
High Throughput Screen (H TS)
The enzymatic activity of QR 2 (10 nM) was measur ed using menadione (both Sigm a -Aldrich) as subst r at e and dihydro- benzylnicotinamide (BNAH; Tocris) as co-substrate(62). The reaction was performed in 50 mM Tri s HCl, 150 mM NaCl 0.01%Tween- 20 pH=8.5 (Sigma-Aldrich) at r oom tem per atur e. Briefl y, 3 µL of menadione alone (200 µM) or a mixture of menadione and QR2 (200 µM of […]
menadione and 10 nM of QR2) were dispensed in 1536-well black Nunc plates (Thermo-Fisher) using aMultidrop™ Combi Reagent Dispenser (Thermo-Fisher) and pre-incubated with compounds for 10min. BNAH (200µM) was t hen added (3 µL) to the reaction using a BioNex Solutions BNX1536plate washer and the plates were incubated for another 10 min. Fluorescence intensity was followed in a PHERAstar FS multi-mode plate reader (BMG Labtech) us i ng an optic module with excitation at 360 nm and emission at 470 nm. The initial HTS includedapproximately 200,000 compounds at a single concentrationof 5 µM. The chemical libraries used were Selleck Chemicals Bioactives, the Drug-like set from Enamine, HitFinder collection from Maybridge, Spectrum Collection from Microsource, Lopa c from Sigma -Aldrich and the diversity set s from Chem Div and Che m Br idge .
Initial ‘‘hit’’ compounds were defined as causing >30% reduction of enzyme activity. Compounds suspected to be fluorescent were re -assayed in an absorbance assay at 350 nm using the same reaction but in a higher volume (100 µL), in a transparent plate (Greiner Bio- One). ‘‘Hit’’ compounds resulting from both the fluorescence and absorbance assay wer e t ested in a concentration- response, and IC50 values were de t er mi ne d. In parallel, the same concentration response methodologywas appliedin a selectivity assay where QR2 enzymewas replaced byQR1 […]
Chromatography System, with UV/Vis detector 2489, using XBridge® Prep C18 10 μm 10x250 mm […]
was monitored by Wat er s UPLC-MS system: Acquity UPLC® H class with PDA detector, and using […]

HEK293 cells = test: XTT cell viability assay; assay type: cell-based; conditions: in % (unit assumed)
Experimental: To establish direct target engagement and cell membrane permeability, a cellular thermal shift assay (CETSA) was carried out, using leading QR2is YB’s-537, 800, and 808. Following a 1 hour preincubation with 5 μM of the QR2is or vehicle, thermal aggregation curves (Taggs) of QR2 expressed in HEK293T were measured in increasing temperatures. All QR2is increased QR2 thermal stability compared with vehicle (Supplemental Figure 2A). Based on the Tagg curves we selected 73°C for isothermal dose-response fingerprint (IDTRF) experiments (Supplemental Figure 2B). The ITDRF allowed the relative quantification of the binding of each of the QR2is to QR2, measured as the EC50 (Figure 3A). […] We evaluated the safety of the QR2is using cell toxicity and viability assays. […] Cell viability was assessed by XTT assay in HEK239T cells, using a dose response, with 3- or 24-hour incubations of the leading QR2is. No sign of toxicity was seen (Figure 3C). Next, we wanted to assess if, similar to QR2 KO, QR2is can reduce cellular ROS in HCT116 cells and see whether any observable effect is occluded in QR2Δ cells. […] We then assessed WT HCT116 cells by immunoblot (Supplemental Figure 2, C and D), after being treated with YB-800 (2 μM) for 4 consecutive days.
H2DCFDA ROS assay was carried out according to established protocols, with some adjustment (Supplemental Methods) ([6]). Cell toxicity was measured via ATP depletion (CellTiter Glo, Promega) in THLE-2 cells (ATCC, CRL-2706), following 72 hours of exposure to the test compounds, and cell viability was assessed using XTT assay (Biological Industries) according to manufacturers protocols. CETSA was performed as previously described ([53]) with some modifications, using QR2 (Santa Cruz, sc-271665) and SOD1 (Santa Cruz, sc-17767) antibodies. SDS-PAGE and immunoblot imaging were carried out as previously described ([55]), using Tubulin (Sigma-Aldrich, SAB4500087), QR2 (Santa Cruz, sc-271665), NDUFA9 (AbCam, ab14713) and CD73 (Cell Signaling Technology, D7F9A) antibodies. […]
HEK293FT cells were cultured with penicillin- streptomycin antibiotics in Invitrogen DMEM (Thermo
Fisher Scientific) with 10% fetal bovine serum a nd L -glutamine, and grown to 80-90% confluence in 100
mm plates, while being passaged every 2–3 d. For the XTT assay (Biological Industries), cells were then
collected, centrifuged, and resuspended in fresh Minimum Essential Medium, and seeded at 50,000
cells/well in 96-well, poly- L-lysine-coated Nunc black, clear flat-bottomed plates (Thermo Fisher
Scientific). The next day, the cells were treated with increasing doses of QR2 inhibitors or vehicle f or 3 h,
and the XTT assay was then carried out as per the manufacturer’s instructions.
Cellular The rm a l Shift Assay (CETSA) […]
17767). Analysis of the results wer e done in accordance to Jafari et a l .( 63) us i ng GraphPad Pr i sm software.

Structure (SMILES): Cc1ccc(-c2cn3cccc(C)c3n2)cc1S(=O)(=O)N1CCNCC1 [YB-537]
binding affinity to QR2 than to QR1 (QR2): more than 6,000 fold
specificity to QR2 compared with QR1 (QR2): more than 6,000 times
IC50 (QR2): 3 nM
cell viability, XTT (replicates) (HEK293 cells; 3h, inhibitor 2e-8 M): 94.7 and 105.7 and 95.0 and 97.1
cell viability, XTT (replicates) (HEK293 cells; 3h, inhibitor 2e-7 M): 97.9 and 102.5 and 95.0 and 99.0
cell viability, XTT (replicates) (HEK293 cells; 3h, inhibitor 2e-6 M): 99.1 and 104.8 and 106.5 and 98.8
cell viability, XTT (replicates) (HEK293 cells; 3h, inhibitor 2e-5 M): 94.7 and 101.0 and 104.9 and 96.7
cell viability, XTT (replicates) (HEK293 cells; 24h, inhibitor 2e-8 M): 105.3 and 102.1 and 104.1
cell viability, XTT (replicates) (HEK293 cells; 24h, inhibitor 2e-7 M): 107.4 and 101.8 and 105.2
cell viability, XTT (replicates) (HEK293 cells; 24h, inhibitor 2e-6 M): 109.0 and 101.0 and 104.0
cell viability, XTT (replicates) (HEK293 cells; 24h, inhibitor 2e-5 M): 106.0 and 97.3 and 109.2

IC50 (QR2): 30 nM
Structure (SMILES): Cc1ccc(-c2cn3cccc(C)c3n2)cc1S(=O)(=O)N1CCC(C)CC1 [YB-800]
cell viability, XTT (replicates) (HEK293 cells; 3h, inhibitor 2e-8 M): 110.8 and 103.7 and 108.0 and 102.4
cell viability, XTT (replicates) (HEK293 cells; 3h, inhibitor 2e-7 M): 102.8 and 101.2 and 105.3 and 105.6
cell viability, XTT (replicates) (HEK293 cells; 3h, inhibitor 2e-6 M): 102.2 and 105.1 and 102.6 and 106.5
cell viability, XTT (replicates) (HEK293 cells; 3h, inhibitor 2e-5 M): 89.7 and 90.4 and 98.2 and 92.7
cell viability, XTT (replicates) (HEK293 cells; 24h, inhibitor 2e-8 M): 107.0 and 100.8 and 108.4
cell viability, XTT (replicates) (HEK293 cells; 24h, inhibitor 2e-7 M): 107.9 and 100.0 and 108.0
cell viability, XTT (replicates) (HEK293 cells; 24h, inhibitor 2e-6 M): 108.3 and 101.8 and 109.9
cell viability, XTT (replicates) (HEK293 cells; 24h, inhibitor 2e-5 M): 104.0 and 96.6 and 104.9

IC50 (QR2): 10 nM
Structure (SMILES): Cc1ccc(-c2cn3cccc(C)c3n2)cc1S(=O)(=O)N1CCCC1 [YB-808]
cell viability, XTT (replicates) (HEK293 cells; 3h, inhibitor 2e-8 M): 99.9 and 101.4 and 100.9 and 104.5
cell viability, XTT (replicates) (HEK293 cells; 3h, inhibitor 2e-7 M): 95.8 and 94.0 and 100.4 and 100.6
cell viability, XTT (replicates) (HEK293 cells; 3h, inhibitor 2e-6 M): 96.9 and 89.9 and 98.4 and 94.4
cell viability, XTT (replicates) (HEK293 cells; 3h, inhibitor 2e-5 M): 97.3 and 87.1 and 95.7 and 85.1
cell viability, XTT (replicates) (HEK293 cells; 24h, inhibitor 2e-8 M): 106.1 and 99.4 and 100.6
cell viability, XTT (replicates) (HEK293 cells; 24h, inhibitor 2e-7 M): 106.1 and 98.5 and 96.2
cell viability, XTT (replicates) (HEK293 cells; 24h, inhibitor 2e-6 M): 103.5 and 93.6 and 93.8
cell viability, XTT (replicates) (HEK293 cells; 24h, inhibitor 2e-5 M): 95.3 and 93.6 and 96.9
